The test system of one assay is EpiSC-derived OPCs. The experiment in a line: In vitro phenotypic screening of OPCs, MBP high-content imaging. The format is cell-based, mouse. The following applies: Mus musculus, 72 h, percentage of MBP+ oligodendrocytes; 3 days; 0.5 nM to 1000 nM; read-out: mOPC EC50. Put shortly: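 Mouse EpiSC-derived OPCs seeded without growth factors and exposed 3 days at 37° C. to 8-point doses, 1000 nM to 0.5 nM final. Fixed cells stained for MBP and DAPI; high-content imaging gave percentage MBP+ oligodendrocytes, with EC50 from Hill-equation fit.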

For assay [1], the target named is human emopamil binding protein and human 7-dehydrocholesterol reductase co-expressing cell membrane (Homo sapiens (Human), UniProt Q15125). Kind of assay: hEBP-DHCR7 radioligand filtration binding assay with [3H]-Compound 118A*. As to conditions: radioligand [3H]-Compound 118A*; HEK293 membrane co-expressing hEBP and DHCR7. Put shortly: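 HEK293 membranes transiently co-expressing hEBP and hDHCR7 (10 μg/well) were incubated with [3H]-Compound 118A* (added at 25 nM) and compounds (8 doses, final 0.06–5000 nM, n=2) for 3 h at 22 °C. Bound radioactivity was read after PEI-treated GF/B filtration. IC50 came from a Hill fit of % inhibition and was converted to Ki.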

In assay [2] the test system is zymostenol accumulation in EpiSC-derived OPCs (EBP). The experiment in a line: GC/MS-based sterol profiling, zymostenol accumulation. It counts as cell-based, mouse. As to conditions: Mus musculus, 24 h, 8 doses from 0.15 nM to 333 nM, read-out: mZymo GCMS EC50. In short, it runs like this: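 EpiSC-derived mouse OPCs plated at 100,000 cells/well in N2B27 without growth factors and treated 24 h. Sterols extracted, silylated with BSTFA and measured by GC/MS (EI, full scan), quantified against cholesterol-d7. Zymostenol normalized to levels after 24 h with 100 nM positive control reference.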

The values below come from patent publication US20240400579A1, “SPIROCYCLIC MODULATORS OF CHOLESTEROL BIOSYNTHESIS AND THEIR USE FOR PROMOTING REMYELINATION” (GENENTECH, INC., priority 2021, published 2024).

The structures appear in SMILES notation.

Chain of human emopamil binding protein and human 7-dehydrocholesterol reductase co-expressing cell membrane (Q15125 whole entry): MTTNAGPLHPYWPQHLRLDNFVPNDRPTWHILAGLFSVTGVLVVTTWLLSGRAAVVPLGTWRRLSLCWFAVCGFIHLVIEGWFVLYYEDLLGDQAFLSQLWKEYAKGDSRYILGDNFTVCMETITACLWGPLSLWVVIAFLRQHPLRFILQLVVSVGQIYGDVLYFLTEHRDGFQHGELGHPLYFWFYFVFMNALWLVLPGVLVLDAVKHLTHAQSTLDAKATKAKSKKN

On to `O=S1(=O)CC2(CCN(CC[C@H](F)c3ccc(C(F)(F)F)nc3)CC2)C1` (single isomer, unassigned) [237A*], for which the EC50 (usually the concentration giving half of the maximal effect) was found to be 26.9 nM in the assay on EpiSC-derived OPCs and 30.1 nM in assay [2]. For the same molecule, the Ki (usually a measure of affinity in units of concentration, obtained from inhibition or displacement) in assay [1] came to 89.6 nM.

As for `CC(C)(CN1CC2(CCS(=O)(=O)CC2)C1)Oc1ccc(C(F)(F)F)cc1` [Example 209, 2-(2-Methyl-2-(4-(trifluoromethyl)phenoxy)propyl)-7-thia-2-azaspiro[3.5]nonane 7,7-dioxide], the EC50 worked out at 45 nM in the assay with EpiSC-derived OPCs and 9.9 nM in assay [2]. Besides, the Ki in assay [1] is 13.9 nM.

In the case of `C[C@@H](Cc1ccc(C(F)(F)F)cn1)CN1CCC2(C1)CS(=O)(=O)C2` (single isomer, unassigned) [121A*], the EC50 in the assay on EpiSC-derived OPCs amounted to 23 nM; in assay [2], 6.1 nM. The same molecule came in with a Ki in assay [1] of 115 nM.

In the case of `CC(C)(Cc1ccc(C(F)(F)F)cc1)CN1CCC2(CC1)CS(=O)(=O)C2` [Example 153, 7-(2,2-Dimethyl-3-(4-(trifluoromethyl)phenyl)propyl)-2-thia-7-azaspiro[3.5]nonane-2,2-dioxide], the concentration for a half-maximal effect (EC50) in the assay with EpiSC-derived OPCs came out at 1.6 nM; in assay [2], 0.87 nM. This molecule also gave an inhibition constant Ki in assay [1] of 7.23 nM.

Take `O=S1(=O)CC2(CCN(CCOc3ccc(F)c(F)c3)CC2)C1` [Example 158, 7-(2-(3,4-Difluorophenoxy)ethyl)-2-thia-7-azaspiro[3.5]nonane 2,2-dioxide]: the figures for the concentration for a half-maximal effect (EC50) (in the assay on EpiSC-derived OPCs; in assay [2]) were 2.9 nM and 2 nM, respectively. In addition, in assay [1], the Ki amounted to 10 nM.

For the molecule `O=S1(=O)CC2(CCN(CCCc3ccc(F)c(F)c3)CC2)C1` [Compound 225, 7-(3-(3,4-Difluorophenyl)propyl)-2-thia-7-azaspiro[3.5]nonane 2,2-dioxide], the EC50 came to 23.5 nM with EpiSC-derived OPCs and 12.2 nM in assay [2]. In addition, in assay [1], the inhibition constant Ki is 24.3 nM.

In the case of `O=S1(=O)CC2(CCN(CC[C@@H](F)c3ccc(C(F)(F)F)cc3)C2)C1` (single isomer, unassigned) [Compound 122A], the EC50 with EpiSC-derived OPCs was 10 nM; in assay [2], 1.5 nM. Moreover, the affinity in assay [1], expressed as Ki, was 15.6 nM.

As to `C[C@H](Cc1ccc(C(F)(F)F)nc1)CN1CCC2(CC1)CS(=O)(=O)C2` (single isomer, unassigned) [Compound 217], the EC50 with EpiSC-derived OPCs turned out to be 26 nM; in assay [2] it was 8.3 nM. Further, the affinity in assay [1], expressed as Ki, was 39.6 nM.

Turning to `CC(C)n1nc(C(F)(F)F)cc1C[C@H](C)CN1CCC2(C1)CS(=O)(=O)C2` (single isomer, unassigned) [235B*], the EC50 with EpiSC-derived OPCs was 3.89 nM; in assay [2], 2.6 nM. Also, in assay [1], the Ki was found to be 17.1 nM.

As to `CC(C)(CN1CCC2(CC1)CS(=O)(=O)C2)Oc1cccc(C(F)(F)F)c1` [Compound 233, 7-(2-Methyl-2-(3-(trifluoromethyl)phenoxy)propyl)-2-thia-7-azaspiro[3.5]nonane 2,2-dioxide], the EC50 with EpiSC-derived OPCs was determined as 5.7 nM; in assay [2], 1.5 nM. The affinity in assay [1], expressed as Ki, was 13.2 nM.

Turning to `C[C@@H](Cc1ccc(C(F)(F)F)cc1)CN1CCC2(CC1)CS(=O)(=O)C2` (single isomer, unassigned) [216A*], the EC50 with EpiSC-derived OPCs worked out at 1.4 nM; in assay [2], 0.95 nM. In assay [1], this molecule showed a Ki of 9.98 nM.

Consider `C[C@@H](Cc1ccc(C(F)(F)F)cc1)CN1CC2(CCS(=O)(=O)CC2)C1` (single isomer, unassigned) [232B*], for which the 50% effective concentration (EC50) in the assay on EpiSC-derived OPCs is 15 nM; in assay [2], 5.7 nM. For the same molecule, the affinity in assay [1], expressed as Ki, was 12.7 nM.

On to `CC(Cc1ccc(C2(C)CC2)cc1)CN1CCC2(C1)CS(=O)(=O)C2` (racemic) [Compound 111A, 6-(2-Methyl-3-(4-(1-methylcyclopropyl)phenyl)propyl)-2-thia-6-azaspiro[3.4]octane 2,2-dioxide], for which the EC50 in the assay on EpiSC-derived OPCs stood at 20 nM; in assay [2], 1.3 nM. The same molecule yielded an inhibition constant (Ki) in assay [1] of 8.57 nM.
